Reference: article PMC12428554, “Anti-HIV and Antimicrobial Activity of 7-Hydrazino-8-hydroxyquinoline-Based Aromatic Hydrazones” (International Journal of Molecular Sciences, 2025)
Where “and” joins values, the source holds several entries; their conditions need not be identical. Equal entries are not always repeated.

How the values were obtained:
[1] = biological target: T1, Ku70–DNA complex (Homo sapiens, UniProt P12956); assay: EMSA of Ku70/Ku80–DNA complex formation; assay type: binding; details: 12.8 nM Ku heterodimer, 4 nM labelled 40 mer DNA duplex, read-out: IC50, inhibition of Ku70–DNA complex formation
T1 construct: made in house; host or cells: Escherichia coli
Experimental: A bicistronic construct was used for the simultaneous expression of the Ku70 and Ku80 proteins in E. coli. Proteins were chromatographically purified with a 6His-tag at the N terminus of the Ku80 subunit. Recombinant Ku protein was produced in bacterial cell culture, purified, and its DNA-binding activity was characterized.
Isolation was performed using affinity chromatography on Ni^2+-NTA resin. The presence of Ku and impurities was monitored using SDS-PAGE and Western blot analysis. The testing of substances as potential inhibitors of the interaction of the Ku heterodimer with DNA was carried out using the gel inhibition assay.
The testing of substances as potential inhibitors of the interaction of the Ku heterodimer with DNA was carried out using the EMSA. […] The result was visualized by radioautography on a Typhoon FLA 9500 PhosphorImager (GE Healthcare Technologies, Chicago, IL, USA). The counting of radioautograms was performed using QuantityOne 4.6.6 software (Bio-Rad, Hercules, CA, USA). The calculation of IC50 parameters was carried out by Prism 8.0.1 software (GraphPad Software, San-Diego, CA, USA).

[2] = Neutral red (NR) cytotoxicity assay; assay type: cell-based; details: human, Huh-7.5 cells
Experimental: Huh7.5 cells were grown in the DMEM/F12 (2:1) medium supplemented with 10% FBS (BioSera, Cholet, France), 2 mM L-glutamine, 100 U/mL penicillin, and 100 µg/mL streptomycin in the presence of 5% CO2 at 37 °C. Cells were re-seeded every three days at a ratio of 1:3 or 1:5.
The 40 µg/mL neutral red working solution was prepared, incubated overnight at the same temperature as the cells, and then centrifuged for 10 min at 600× g to remove any precipitated dye crystals. After the incubation with compounds tested at 37 °C in 5% CO2 for 48 h, cells were washed with PBS and then 100 µL of neutral red medium was added to each well of the plate. The plate was incubated for 2 h at the appropriate culture conditions, then the neutral red medium was removed and the cells were washed with PBS. After that 150 µL neutral red destain solution per well was added (50% ethanol, 49% deionized water, 1% glacial acetic acid (Sigma-Aldrich, Burlington, MA, USA). After the neutral red was extracted from the cells and formed a homogeneous solution, the result of the analysis was evaluated using a Tecan Spark multimode microplate reader via absorbance at 540 nm.

[3] = Sulforhodamine B (SRB) cytotoxicity assay; assay type: cell-based; details: human, Huh-7.5 cells
Experimental: Huh7.5 cells were grown in the DMEM/F12 (2:1) medium supplemented with 10% FBS (BioSera, Cholet, France), 2 mM L-glutamine, 100 U/mL penicillin, and 100 µg/mL streptomycin in the presence of 5% CO2 at 37 °C. Cells were re-seeded every three days at a ratio of 1:3 or 1:5. After an incubation period, cell monolayers were fixed with 10% (w/v) trichloroacetic acid and stained for 30 min by adding 100 µL of 0.057% (w/v) SRB solution to each well, after which the excess dye is removed by washing repeatedly with 1% (v/v) acetic acid. The protein-bound dye is dissolved in 10 mM Tris-base solution with pH 10.5 for OD determination using a Tecan Spark multimode microplate reader via absorbance at 510 nm.

[4] = test system: C. albicans ATCC 10231; assay: MIC by twofold serial dilution, C. albicans; assay type: cell-based; details: Candida albicans, ATCC10231; 24 h, 35 °C; read-out: MIC (Mean ± SE) C. albicans ATCC 10231
Experimental: Candida albicans ATCC 10231, Pseudomonas aeruginosa ATCC 27853, and Staphylococcus aureus ATCC 29213 strains were obtained from the American Type Culture Collection (ATCC; Rockville, MD, USA). The subculture and inoculum preparation were performed according to CLSI M27-A3 for C. albicans on yeast extract peptone dextrose (YPD) agar (HiMedia, Mumbai, Maharashtra, India) and RPMI-1640 medium (PanEco, Moscow, Russia) with MOPS (3-(N-morpholino) propanesulfonic acid, >99.5%; PanEco, Moscow, Russia), and M7-A11 for P. aeruginosa and S. aureus on Mueller-Hinton agar (MHA; HiMedia, Mumbai, Maharashtra, India) and Mueller-Hinton broth (MHB; HiMedia, Mumbai, Maharashtra, India). The stock cell concentrations of fungus and bacteria were 1 × 10^6 and 1 × 10^8 cells/mL, respectively. A working suspension of C. albicans (5.0 × 10^2 cells/mL) was prepared by two-step dilution of the broth concentration with the RPMI-1640 medium. Assay suspensions of P. aeruginosa and S. aureus (1.0 × 10^6 cells/mL) were prepared by diluting the concentration with Mueller-Hinton broth (HiMedia, Mumbai, Maharashtra, India). Amphotericin B (Sigma-Aldrich, Burlington, MA, USA) and gentamicin (Sigma-Aldrich, Burlington, MA, USA) were used as secondary pharmaceutical standards.
The minimum inhibitory concentration (MIC) was determined by the twofold serial dilution method, according to CLSI M27-A3 [33] and M07-A11 [34], in three independent experiments with four replicates each. Amphotericin B was used as a positive control for fungus; gentamicin was used as a positive control for bacteria. Stock solutions except gentamicin were prepared in DMSO at a concentration of 6400 μg/mL. Gentanicin was solubilized in sterile water at a concentration of 1280 μg/mL. Stock solutions of the tested substances were diluted to the final concentrations in the assay medium and 100 μL of each sample was added to the wells of 96-well plates, and then 100 μL of inoculum was added. Rows 11 and 12 were left for the negative control (medium with inoculum without the drug) and sterility control. The plates were incubated for 24 h at 35 °C in the case of C. albicans and at 37 °C in the case of P. aeruginosa and S. aureus. The tested concentration for gentamicin ranged from 0.0625 to 32 μg/mL; for other compounds, it ranged from 0.125 to 64 μg/mL. The MIC value was determined using spectrophotometer. The MIC was taken to be the lowest drug concentration that caused complete inhibition of microorganism growth compared to the control. The final MIC values were reported as the means with standard error (SE). Standard errors for µg/mL values less than 0.01 were excluded; standard errors for µM values less than 0.1 were excluded (Table 3).

T1 sequence (P12956 whole entry): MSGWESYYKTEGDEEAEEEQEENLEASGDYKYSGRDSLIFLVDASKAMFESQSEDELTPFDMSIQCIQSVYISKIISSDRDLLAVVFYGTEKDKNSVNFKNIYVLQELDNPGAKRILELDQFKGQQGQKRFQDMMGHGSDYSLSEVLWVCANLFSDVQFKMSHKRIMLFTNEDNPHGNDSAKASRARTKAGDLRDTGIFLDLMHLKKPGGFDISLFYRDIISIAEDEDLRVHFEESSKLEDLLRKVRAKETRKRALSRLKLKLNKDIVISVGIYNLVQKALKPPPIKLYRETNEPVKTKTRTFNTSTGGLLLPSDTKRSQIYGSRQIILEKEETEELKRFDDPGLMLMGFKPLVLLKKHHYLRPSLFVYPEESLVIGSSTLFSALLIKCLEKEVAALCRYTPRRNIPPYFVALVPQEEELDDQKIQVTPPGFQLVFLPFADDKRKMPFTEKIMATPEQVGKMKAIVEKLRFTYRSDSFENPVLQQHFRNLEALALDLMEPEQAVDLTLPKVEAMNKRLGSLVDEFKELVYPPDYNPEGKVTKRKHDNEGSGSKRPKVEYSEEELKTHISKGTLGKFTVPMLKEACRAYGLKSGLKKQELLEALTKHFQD
T1 sequence (P13010 whole entry partner): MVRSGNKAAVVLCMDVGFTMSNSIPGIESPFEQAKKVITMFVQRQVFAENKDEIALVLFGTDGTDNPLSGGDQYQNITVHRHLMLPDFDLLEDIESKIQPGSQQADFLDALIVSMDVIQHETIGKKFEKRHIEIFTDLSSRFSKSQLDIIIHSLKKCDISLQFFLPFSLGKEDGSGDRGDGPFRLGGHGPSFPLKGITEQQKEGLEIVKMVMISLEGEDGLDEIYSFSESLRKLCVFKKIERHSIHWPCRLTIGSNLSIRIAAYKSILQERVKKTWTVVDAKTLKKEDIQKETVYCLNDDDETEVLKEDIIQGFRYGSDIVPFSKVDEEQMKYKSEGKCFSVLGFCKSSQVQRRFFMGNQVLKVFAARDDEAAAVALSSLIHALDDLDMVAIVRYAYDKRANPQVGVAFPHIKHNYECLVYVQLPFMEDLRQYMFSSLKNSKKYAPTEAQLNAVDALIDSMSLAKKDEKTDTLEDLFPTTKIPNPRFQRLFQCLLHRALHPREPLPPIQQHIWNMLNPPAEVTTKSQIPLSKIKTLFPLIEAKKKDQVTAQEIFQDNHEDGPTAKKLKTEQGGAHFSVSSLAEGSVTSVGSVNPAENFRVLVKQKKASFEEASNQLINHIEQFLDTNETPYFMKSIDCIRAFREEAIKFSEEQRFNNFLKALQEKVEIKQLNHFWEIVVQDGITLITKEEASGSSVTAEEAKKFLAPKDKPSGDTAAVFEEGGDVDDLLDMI

SMILES: Oc1c(N/N=C/c2ccc(F)cc2)ccc2cccnc12 [VI, 7-(4-Fluorobenzylidenohydrazinyl)-8-hydroxyquinoline]
- IC50 [1]: > 250 µM
- CC50 at 48 h [2]: 6.7 ± 0.2 µM
- CC50 [3]: 7 ± 0.2 µM
- MIC [4]: 3.8 µg/mL and 13.6 µM

SMILES: O=[N+]([O-])c1ccc(/C=N/Nc2ccc3cccnc3c2O)cc1 [II, 7-(4-Nitrobenzylidenohydrazinyl)-8-hydroxyquinoline]
- IC50 [1]: 50 ± 20 µM
- CC50 at 48 h [2]: 21 ± 4 µM
- CC50 [3]: 8 ± 0.1 µM
- MIC [4]: 13 µM and 4 µg/mL

SMILES: O=[N+]([O-])c1cccc(/C=N/Nc2ccc3cccnc3c2O)c1 [III, 7-(3-Nitrobenzylidenohydrazinyl)-8-hydroxyquinoline]
- IC50 [1]: 60 ± 20 µM
- CC50 at 48 h [2]: 7.1 ± 0.7 µM
- CC50 [3]: 7.1 ± 0.4 µM
- MIC [4]: 11.3 µg/mL and 36.8 µM

SMILES: Oc1c(N/N=C/c2ccc(Br)c(Br)c2)ccc2cccnc12 [V, 7-(3,4-Dibromobenzylidenohydrazinyl)-8-hydroxyquinoline]
- IC50 [1]: 25 ± 8 µM
- CC50 at 48 h [2]: 8.6 ± 0.1 µM
- CC50 [3]: 6.9 ± 0.3 µM
- MIC [4]: 15.3 µg/mL and 36.3 µM

SMILES: COc1ccc(/C=N/Nc2ccc3cccnc3c2O)cc1 [IV, 7-(4-Methoxybenzylidenohydrazinyl)-8-hydroxyquinoline]
- IC50 [1]: 80 ± 30 µM
- CC50 at 48 h [2]: 9.1 ± 1.5 µM
- CC50 [3]: 40 ± 0.2 µM
- MIC [4]: 8 µg/mL and 27.3 µM

SMILES: Oc1c(N/N=C/c2ccccc2)ccc2cccnc12 [Compound I, 7-(2-Benzylidenohydrazinyl)-8-hydroxyquinoline]
- IC50 [1]: 40 ± 10 µM
- CC50 at 48 h [2]: 14.5 ± 3.5 µM
- CC50 [3]: 59.5 ± 12.5 µM
- MIC [4]: 4 µg/mL and 15.2 µM
